Assay results reported in paper PMC8533363, “Effective Perturbations on the Amplitude and Hysteresis of Erg-Mediated Potassium Current Caused by 1-Octylnonyl 8-[(2-hydroxyethyl)[6-oxo-6(undecyloxy)hexyl]amino]-octanoate (SM-102), a Cationic Lipid” (Biomedicines, 2021).

Molecular target: T1, erg-mediated K+ (Kerg, KV11) channel (Rattus norvegicus, UniProt O08962)
T1 construct: gene Kcnh2; native channel in GH3 pituitary tumor cells
T1 sequence (O08962 1-1163): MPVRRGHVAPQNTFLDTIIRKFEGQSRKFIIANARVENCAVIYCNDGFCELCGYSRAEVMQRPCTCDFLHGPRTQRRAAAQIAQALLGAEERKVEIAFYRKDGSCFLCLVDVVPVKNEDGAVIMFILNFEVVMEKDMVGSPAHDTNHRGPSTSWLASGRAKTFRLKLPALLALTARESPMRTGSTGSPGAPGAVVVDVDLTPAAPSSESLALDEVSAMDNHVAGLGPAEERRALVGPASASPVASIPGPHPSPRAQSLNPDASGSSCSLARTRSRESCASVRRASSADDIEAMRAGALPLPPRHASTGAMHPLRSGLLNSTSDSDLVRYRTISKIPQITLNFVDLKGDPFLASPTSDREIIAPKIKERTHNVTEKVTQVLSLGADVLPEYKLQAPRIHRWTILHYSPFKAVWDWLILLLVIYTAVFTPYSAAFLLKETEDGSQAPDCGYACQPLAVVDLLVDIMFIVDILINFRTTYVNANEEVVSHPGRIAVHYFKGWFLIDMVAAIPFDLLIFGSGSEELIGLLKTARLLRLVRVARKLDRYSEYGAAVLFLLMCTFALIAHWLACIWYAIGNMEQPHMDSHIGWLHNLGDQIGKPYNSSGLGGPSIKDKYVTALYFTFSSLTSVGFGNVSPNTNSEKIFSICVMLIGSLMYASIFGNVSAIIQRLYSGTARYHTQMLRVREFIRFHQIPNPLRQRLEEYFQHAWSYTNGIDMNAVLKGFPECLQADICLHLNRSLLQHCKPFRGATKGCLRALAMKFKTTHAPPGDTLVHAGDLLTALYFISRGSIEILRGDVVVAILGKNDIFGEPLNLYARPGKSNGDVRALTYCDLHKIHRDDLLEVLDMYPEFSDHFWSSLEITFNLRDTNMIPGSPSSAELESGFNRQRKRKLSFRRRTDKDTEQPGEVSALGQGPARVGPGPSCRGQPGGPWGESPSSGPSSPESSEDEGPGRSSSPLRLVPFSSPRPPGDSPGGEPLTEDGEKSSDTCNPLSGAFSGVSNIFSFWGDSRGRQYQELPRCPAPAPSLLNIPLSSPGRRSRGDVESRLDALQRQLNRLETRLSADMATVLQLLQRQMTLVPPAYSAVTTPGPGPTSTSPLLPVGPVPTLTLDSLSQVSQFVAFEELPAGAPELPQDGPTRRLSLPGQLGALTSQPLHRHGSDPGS
Experiment: whole-cell patch clamp of native IK(erg) in GH3 cells; concentration-response and deactivation kinetics (KD […])
Format: cell-based

Structure (SMILES): CCCCCCCCCCCOC(=O)CCCCCN(CCO)CCCCCCCC(=O)OC(CCCCCCCC)CCCCCCCC [SM-102, 1-octylnonyl 8-[(2-hydroxyethyl)[6-oxo-6-(undecyloxy)hexyl]amino]-octanoate]
- IC50: 108 µM
